# Data taken from patent US9737616B2, “Compounds and methods for the treatment of ERB B2/NEU positive diseases” (Bio-Thera Solutions, Ltd., Co., priority 2012, dated 2017).
# Legend:
# tubulin = test: HTS-Tubulin Polymerization Assay Kit, tubulin polymerization in vitro; type: biochemical; settings: for inhibition of tubulin polymerization compared with the PBS buffer: Example 6, 1 μM stock of test substance, 4 mg/mL tubulin, 37° C., 405 nm
# Description: The effect of 3AA-MDC, 206-3AA-MDC and the metabolites (Cys-3AA-MDC and Lys-mcc-MDC) of prodrug antibody maytansinoid conjugates on the tubulin polymerization in vitro was assessed by HTS-Tubulin Polymerization Assay Kit (BK004P, Cytoskeleton, Inc., USA). According to the instruction of kit, pre-warm the 96-well plate to 37° C. for 30 min prior to starting the assay. At the same time, the spectrophotometer (SpectraMax, Molecular Devices, USA) was set as follow: wavelength, 405 nm; temperature, 37° C.; Kinetic, 31 cycles of 1 reading per minute. Make cold G-PEM buffer (990 μL General Tubulin Buffer+10 μL GTP Stock) and keep it on ice. Prepare 4 mg/mL tubulin, 1 μM L-3AA-MDC (N2′-deacetyl-N2′-(6-maleimido-1-oxo-hexyl)maytansine), 1 μM 206-3AA-MDC, 1 μM cys-3AA-MDC, 1 μM lys-mcc-MDC, 100 μM Paclitaxel, and 100 μM Nocodazole. Add 10 μL G-PEM, 3AA-MDC, 206-3AA-MDC, cys-3AA-MDC, lys-mcc-MDC, Paclitaxel, Nocodazole into the wells, and then add 100 μL 4 mg/ml tubulin to each well. Immediately place the plate into the spectrophotometer and start recording using the kinetic setup described above. […] Nocodazole, the tubulin polymerization inhibitor, was set as a negative control. The metabolite Cys-3AA-MDC was prepared by reaction of 3AA-MDC with cysteine under the base DIEA in CH2Cl2. […] The metabolite Lys-MCC-MDC was prepared by reaction of SMCC-MDC with lysine under the base DIEA in DMF.
# The effect of 3AA-MDC and related metabolites on the tubulin polymerization in vitro was assessed by HTS-Tubulin Polymerization Assay Kit (BK004P, Cytoskeleton, Inc., USA). According to the instruction of kit, pre-warm the 96-well plate to 37° C. for 30 min prior to starting the assay. At the same time, the spectrophotometer (SpectraMax, Molecular Devices, USA) was set as follow: wavelength, 405 nm; temperature, 37° C.; Kinetic, 31 cycles of 1 reading per minute. Make cold G-PEM buffer (990 μL General Tubulin Buffer+10 μL GTP Stock) and keep it on ice. Prepare 4 mg/ml tubulin, 200 nM L-3AA-MDC (N2′-deacetyl-N2′-(6-maleimido-1-oxo-hexyl)maytansine), or related compounds cys-3AA-MDC, or lys-mcc-MDC, 100 μM Paclitaxel, 100 μM Nocodazole, and 1 μM 206-3AA-MDC (3AA-MDC-antibody). Add 10 μL G-PEM, 3AA-MDC, Paclitaxel, Nocodazole and 206-3AA-MDC or related metabolites into the wells, and then add 100 μL 4 mg/ml tubulin to each well. Immediately place the plate into the spectrophotometer and start recording using the kinetic setup described above.
# [1] = tested on: human acute lymphoblastic leukemia line C.E.M.; settings: Wolpert-DeFillippes et al. 1975; cited from earlier work
smiles,measurement,setting,value
"COc1cc2cc(c1Cl)N(C)C(=O)C[C@H](OC(=O)[C@H](C)N(C)C(=O)CCCCCN1C(=O)C=CC1=O)[C@]1(C)OC1[C@H](C)[C@@H]1C[C@@](O)(NC(=O)O1)[C@H](OC)/C=C/C=C(\C)C2 (stereo partly drawn) [3AA-MDC, N2′-deacetyl-N2′-(6-maleimido-1-oxo-hexyl)-maytansine]",inhibition of tubulin polymerization compared with the PBS buffer,tubulin,more significantly inhibited
same,inhibition of tubulin polymerization,"tubulin; Example 7, 200 nM stock, FIG. 1",more significantly inhibited
COc1cc2cc(c1Cl)N(C)C(=O)C[C@H](OC(=O)[C@H](C)N(C)C(=O)CCSC1CC(=O)N(CC3CCC(C(=O)NCCCC[C@H](N)C(=O)O)CC3)C1=O)[C@]1(C)O[C@H]1[C@H](C)[C@@H]1C[C@@](O)(NC(=O)O1)[C@H](OC)/C=C/C=C(\C)C2 (stereo partly drawn) [Lys-mcc-MDC],inhibition of tubulin polymerization compared with the PBS buffer,tubulin,more significantly inhibited
COc1cc2cc(c1Cl)N(C)C(=O)C[C@H](OC(=O)[C@H](C)N(C)C(C)=O)[C@]1(C)O[C@H]1[C@H](C)[C@@H]1C[C@@](O)(NC(=O)O1)[C@H](OC)/C=C/C=C(\C)C2 [Maytansine],"inhibitory concentration, as low as",[1],10^−7 µg/mL
COC(=O)Nc1nc2ccc(C(=O)c3cccs3)cc2[nH]1 [Nocodazole],"relative activity of tubulin polymerization, decreased","tubulin; Example 7, 100 μM stock",2.5 fold
CC(=O)O[C@H]1C(=O)[C@@]2(C)[C@H]([C@H](OC(=O)c3ccccc3)[C@]3(O)C[C@H](OC(=O)[C@H](O)[C@@H](NC(=O)c4ccccc4)c4ccccc4)C(C)=C1C3(C)C)[C@]1(OC(C)=O)CO[C@@H]1C[C@@H]2O [Paclitaxel],"relative activity of tubulin polymerization, enhanced","tubulin; Example 7, 100 μM stock",about 3 fold
